Reference: patent publication US20150328157A1, “APPLICATION OF SILICON DIOXIDE AEROGEL AS NANO-DRUG CARRYING SYSTEM IN PHARMACY” (GRADUATE SCHOOL AT SHENZHEN, TSINGHUA UNIVERSITY, priority 2012, published 2015)

Test: Bioavailability of nanosized paclitaxel oral dosage form in rat bodies (plasma paclitaxel by HPLC)
Type: in vivo, SD rats
Details: male, SD, one-time intragastric administration 40 mg/kg
Method: Chromatographic conditions: Elite SinoChrom 300A ODS-AP 5 nm 4.6×250 mm Mobile phase: methanol:water:acetonitrile=23:41:36; flow rate: 1.0 ml/min; detection wavelength: 227 nm; and sample size: 20 μl.
Preparation of an internal standard solution: weighing about 10 mg of a diazepam control product, precisely weighing, putting into a 100 ml measuring flask, dissolving with methanol, diluting to the scale and shaking up to obtain an internal standard stock solution with the concentration of 100 μg/ml. An appropriate amount of the stock solution was precisely weighed, diluted with methanol to prepare 10 μg/ml of internal standard control product solution and preserved in the refrigerator at 4° C. for later use.
100 ul of plasma sample was taken and put into an EP tube, 5 μl (10 μg/ml) and 40 μl of NaHCO3(1 mol/L) was added, whirling was performed for 1 min, 1 ml of an extraction solvent, namely ethyl ether, was added, whirling was performed for 2 min, centrifugation was performed at 3500 r/min for 10 min, supernatant fluid was taken and blow-dried under air flow of 40° C., the residue was dissolved in 40 μl of mobile phase, whirling was performed for 1 min, centrifugation was performed at 3500 r/min for 10 min, and then 20 μl of supernatant fluid was taken for sample injection and analysis. […]

CC(=O)O[C@H]1C(=O)[C@@]2(C)[C@H]([C@H](OC(=O)c3ccccc3)[C@]3(O)C[C@H](OC(=O)[C@H](O)[C@@H](NC(=O)c4ccccc4)c4ccccc4)C(C)=C1C3(C)C)[C@]1(OC(C)=O)CO[C@@H]1C[C@@H]2O [paclitaxel]
AUC: 4890 ng·h/mL
